From US7592326B2, “Method for stimulating the immune, inflammatory or neuroprotective response” (priority 2004, dated 2009)

How the values were obtained:
Format in all cases: cell-based
[1] = test system: Plasmacytoid dendritic cells (pDCs); assay: IFN secretion by human plasmacytoid dendritic cells; conditions: two independent experiments in duplicate; data not shown
Method: Venipuncture was performed on consenting adults using approved protocols. Plasmacytoid dendritic cells (pDCs) were prepared, as previously described (Schroeder et al., 2005), using a 2-step procedure involving Percoll density centrifugation followed with selection for Blood Dendritic Cell Antigen (BDCA)-4 positive cells (Miltenyi Biotec, Inc., Auburn, Calif.). The capacity of c-di-GMP to induce IFN-alpha from these cells was assessed using cell culture and ELISA protocols also previously described (Schroeder et al., 2005) and was simultaneously compared to the […] produced by pDC in response to cells stimulated with CpG oligodeoxynucleotide (ODN)-2216 (Krieg, 2002).

ERK = assay: Western blot signaling in human macrophages: ERK
Method: Preparation of macrophages was performed as previously described (Akagawa et al., 1996). Briefly, fully differentiated macrophages from human PBMC were isolated from leukapheresis preparations obtained by the Blood Bank, Clinical Center, National Institutes of Health, Bethesda, Md. The leukocyte-rich preparation was overlaid on Accu-prep in 50 ml tubes and the tubes were centrifuged at 800 × g for 20 min at room temperature. PBMC fractions were collected, washed once with PBS at room temperature and twice with complete medium at 4° C. and resuspended in the same medium. Monocytes were further purified by using iso-osmotic Percoll gradient (Amersham Biosciences). At this stage, the purity of monocytes was higher than 90%. One and half million cells were placed on a 12-well plate in 1.5 ml RPMI1640 containing 50 ng/ml human M-CSF. On day 4, 1 ml of the medium was replaced with 1 ml of fresh medium containing 50 ng human M-CSF. On day 7, non-adherent cells were washed out and adherent cells were used as macrophages.
Western blot analysis of macrophages was performed as previously described (Matsuyama et al., 2003). Briefly, prepared macrophages were starved in RPMI 1640 without FCS for 10 h. Cells were rinsed three times with PBS, and treated with cyclic dinucleotide for various times. Cells were lysed on ice for 20 min in a buffer containing 50 mM NaCl, 20 mM Tris-HCl, 50 mM sodium fluoride, 30 mM Na4P207, 5 mM EGTA, 3 mM sodium orthovanadate, 1% Triton X-100, 1 mg/ml leupeptin, 1 mM PMSF, 1 mg/ml aprotinin, 1 mg/ml pepstatin A and 100 mM sodium orthovanadate pre-treated with H202. The lysates were spun in a microcentrifuge for 20 min and the supernatants were collected. Proteins were analyzed on 12% polyacrylamide gels by SDS-PAGE and transferred electrophoretically to nitrocellulose membranes at 150 mA for 1 h in a semi-dry system. The membranes were incubated with an antibody against either phosphorylated or nonphosphorylated p38 MAP kinase or ERK, followed by an appropriate secondary Ab coupled with horseradish peroxidase. […]

human DCs = assay: Cytokine, chemokine and chemokine receptor expression in c-di-GMP-induced DC maturation (QPCR)
Method: Buffy coats were obtained from healthy human volunteers and fractionated over Histopaque-1077. The peripheral blood mononuclear cells (PBMC) layer was recovered and erythrocyte-depleted by incubation in red blood cell lysis buffer for 5 minutes at room temperature. PBMCs were cultured in complete medium (RPMI 1640, 1% L-glutamine, 1% penicillin/streptomycin, and 10% low endotoxin FCS) for 2 hours in T75 flasks (Corning). Following incubation, nonadherent cells were removed by three washes with 1× PBS (Invitrogen, Carlsbad, Calif.). The remaining adherent cells were then cultured in complete medium supplemented with GM-CSF and IL-4 (50 ng/mL each). Human and murine IL-4 and GM-CSF were purchased from Peprotech (Rocky Hill, N.J.). On day 2 and day 4, the DC cultures received an additional dose of GM-CSF and IL-4 (50 ng/mL each). On day 5, non-adherent DC were harvested by gentle pipetting, counted, and plated in fresh medium containing GM-CSF and IL-4 (50 ng/mL each). On Day 6, some DC were matured by addition of 100 ng/ml LPS or 10-400 μM c-di-GMP for 1-24 hours.
Surface expression of various markers was assessed using CellQuest analysis software on a FACScalibur (Becton-Dickinson) flow cytometer. Surface expression was determined using the following FITC- and PE-conjugated antibodies: CD86-FITC (Research Diagnostics), CCR7-PE (R&D Systems), CD80-FITC, CD83-FITC, HLA-DR-FITC (BD Pharmingen). The isotype control antibodies were used accordingly in all experiments and were purchased from Pharmingen. Human DC were incubated in 1% human AB serum/PBS and were incubated with rat anti-CD16/CD32 (BD Phamingen) to block non-specific binding. Total RNA was extracted using the RNeasy kit according to the manufacturer's protocol (Qiagen). Briefly, after DNase I (Invitrogen) treatment, 1 μg of total RNA from each sample was used as template for the reverse transcription reaction. 50 ul of cDNA was synthesized using Oligo(dT)15, random hexamers, and multiscribe reverse transcriptase (Applied Biosystems). All samples were reverse transcribed under the same conditions (25° C. for 10 minutes, 48° C. for 30 minutes) and from the same reverse transcription master mix in order to minimize differences in reverse transcription efficiency. All oligonucleotide primers for QPCR were designed using Primer Express software 1.0 (PE Biosystems) and synthesized by Invitrogen. The 25 ul QPCR reaction contains 2 ul of cDNA, 12.5 ul of 2× SYBR Green master mix (Stratagene), and […] of sense and anti-sense primer. The reaction conditions were as follows: 50° C. for 2 minutes, 95° C. for 10 minutes then 40 cycles of 95° C. for 15 seconds and 60° C. for 1 minute. Emitted fluorescence for each reaction was measured during the annealing/extension phase, and amplification plots were analyzed using the MX4000 software version 3.0 (Stratagene). Quantity values (i.e., copies) for gene expression were generated by comparison of the fluorescence generated by each sample with standard curves of known quantities. Next, the calculated number of copies was divided by the number of copies of the housekeeping gene GAPDH.

Nc1nc(=O)c2ncn([C@@H]3OC4COP(=O)(O)O[C@H]5[C@@H](O)[C@H](n6cnc7c(=O)nc(N)[nH]c76)O[C@@H]5COP(=O)(O)OC4C3O)c2[nH]1 (some centres unmarked) [c-di-GMP, Bis(3′→5′)-cyclic diguanylic acid]
induction of Type I IFN from pDC [1]: negative
ERK phosphorylation (ERK; 10- and 100 uM, human macrophages, FIG. 13B): activate
time of peak ERK phosphorylation (ERK; absent at 20 min): 5 min
magnitude of ERK phosphorylation relative to LPS (ERK; under the conditions tested): weaker
mRNA expression of chemokines IL-8/CXCL8, MIG/CXCL9, IP-10/CXCL10, I-TAC/CXCL11, MCP-1/CCL2, MIP-1a/CCL3, MIP-1b/CCL4, RANTES/CCL5 (human DCs; 200 uM, 1-24 hours): increased
mRNA expression of IFN-a, IL-1b, TNF, IFN-g and IL-12 p40 (human DCs; 200 uM, FIG. 11A): stimulated
IL-8 and IP-10 protein production (ELISA of supernatants) (human DCs; 24 hours, data not shown): consistent with the mRNA results
expression of CXCR4 and CCR7 (human DCs; FIG. 11C): upregulated
expression of chemokine receptors CCR1 and CCR5 (human DCs; FIG. 11C): downregulated
induction of Th2 cytokines (IL-4, IL-5, IL-10, IL-13) (human DCs; human DCs): No evidence for the induction
time of TNF-a peak following treatment (human DCs; returns to basal level after 24 hours): 3 h
